For experiment [1], the species on record is Rattus norvegicus. As to the kind of experiment: Inhibition of rat microsomal SOAT assessed as reduction in cholesteryl oleate formation from oleoyl co-enzyme A at 10 uM pretreated for 15 mins followed by oleoyl co-enzyme A addition measured after 10 mins by HPTLC method relative to control.
Experiment [2] can be described thus: Inhibition of rat microsomal SOAT assessed as reduction in cholesteryl oleate formation from oleoyl co-enzyme A pretreated for 15 mins followed by oleoyl co-enzyme A addition after 10 mins by HPTLC method.

A word on the inhibition: it is how much of the control response was suppressed. As usually defined, the IC50 is the concentration that inhibits the measured activity by half. In general, pIC50 refers to the negative decadic logarithm of the IC50, by convention in mol/L.

Consider `Cc1ccc(-c2nc(NC(=O)Nc3ccc(F)cc3F)sc2-c2ccc(NS(C)(=O)=O)cc2)cc1`, for which the inhibition in experiment [1] was 2.17%.
The same measure, in the same setting: with `CCCCNC(=O)Nc1nc(-c2ccccc2)c(-c2ccccc2)s1` the figure was 2.56%.
`CCCCNC(=O)Nc1nc(-c2ccc(OC)cc2)c(-c2ccc(Cl)cc2)s1`: in experiment [1], the inhibition was 27.6%. In experiment [2], the 50% inhibitory concentration (IC50) turned out to be 62.9 µM and the pIC50 worked out at 4.2014.
In the case of `CCCCCCCCCCCCNC(=O)Nc1ccc(-c2sc(C)nc2-c2ccc(Cl)cc2)cc1`, the inhibition in experiment [1] stood at 5.75%.
Still for that read-out and setting: with `CCc1cccc(CC)c1NC(=O)Nc1nc(-c2ccc(C)cc2)c(-c2ccc([N+](=O)[O-])cc2)s1` the figure was 1.03%; with `Cc1ccc(-c2nc(C)sc2-c2ccc(NC(=O)Nc3c(C(C)C)cccc3C(C)C)cc2)cc1`, 11.2%; with `Cc1nc(-c2ccc(F)cc2)c(-c2ccc(NC(=O)Nc3ccccc3)cc2)s1`, 16.8%.
Still for that read-out and setting: under `CCCCNC(=O)Nc1nc(-c2ccc(F)cc2)c(-c2ccc(Cl)cc2)s1` stands 3.3%.
Take `O=C(Nc1ccccc1)Nc1nc(-c2ccccc2)c(-c2ccccc2)s1`: the inhibition in experiment [1] came to 10.6%. In experiment [2], the IC50 was 17.7 µM and the negative logarithm of the IC50 (pIC50) is 4.7512.
As to `CCCCCCCCCCCCNC(=O)Nc1ccc(-c2sc(C)nc2-c2ccc(C)cc2)cc1`, the inhibition in experiment [1] turned out to be 46.2%. Further, in experiment [2], the 50% inhibitory concentration (IC50) was determined as 12.2 µM and the pIC50 worked out at 4.914.
On to `CCCCCCCCCCCCNc1ccc(-c2sc(NC(=O)Nc3ccc(F)cc3F)nc2-c2ccc(OC)cc2)cc1`, for which the inhibition in experiment [1] was 1.77%.
On the same count and under the same terms, under `CCCCNC(=O)Nc1ccc(-c2nonc2-c2ccc(Cl)cc2)cc1` stands 23%; under `O=C(Nc1ccc(-c2nonc2-c2ccc(F)cc2)cc1)Nc1ccc(F)cc1F`, 47.1%; under `CCCCCCCNC(=O)Nc1ccc(-c2nonc2-c2ccc(Cl)cc2)cc1`, 4.3%.
For `CCCCCCCNC(=O)Nc1nc(-c2ccc(OC)cc2)c(-c2ccc([N+](=O)[O-])cc2)s1`, the inhibition in experiment [1] amounted to 1.52%.
The same measure, in the same setting: with `CCCCNC(=O)Nc1nc(-c2ccc(OC)cc2)c(-c2ccc(NS(C)(=O)=O)cc2)s1` the figure was 5.45%; with `O=C(Nc1nc(-c2ccc(Cl)cc2)c(-c2ccc([N+](=O)[O-])cc2)s1)Nc1ccc(F)cc1F`, 3.28%; with `CCc1cccc(CC)c1NC(=O)Nc1nc(-c2ccc(F)cc2)c(-c2ccc(Cl)cc2)s1`, 1.58%.
Regarding `CCc1cccc(CC)c1NC(=O)Nc1ccc(-c2sc(C)nc2-c2ccc(OC)cc2)cc1`, in experiment [1], the inhibition came to 31.6%. For the same molecule, in experiment [2], the IC50 was 43.6 µM and the pIC50 is 4.3606.
In the case of `O=C(Nc1nc(-c2ccc(F)cc2)c(-c2ccc([N+](=O)[O-])cc2)s1)Nc1ccc(F)cc1F`, in experiment [1], the inhibition was 3.59%.
On to `Cc1nc(-c2ccc(Cl)cc2)c(-c2ccc(NC(=O)NCCN3CCOCC3)cc2)s1`, for which the inhibition in experiment [1] amounted to 12.3%. Also, in experiment [2], the IC50 turned out to be 118 µM and the pIC50 turned out to be 3.927.
`COc1cc(NC(=O)Nc2ccc(-c3sc(C)nc3-c3ccc(C)cc3)cc2)cc(OC)c1OC`: the inhibition in experiment [1] worked out at 21.9%.
Take `COc1ccc(-c2nc(NC(=O)Nc3ccc(F)cc3F)sc2-c2ccc(NC(C)=O)cc2)cc1`: the inhibition in experiment [1] is 39%. In experiment [2], the IC50 was determined as 31.9 µM and the pIC50 is listed as 4.496.
With `CC(=O)Nc1ccc(-c2sc(NC(=O)Nc3ccc(F)cc3F)nc2-c2ccc(C)cc2)cc1`, the inhibition in experiment [1] worked out at 3.06%.
Take `CCCCNC(=O)Nc1ccc(-c2nonc2-c2ccc(C)cc2)cc1`: the inhibition in experiment [1] worked out at 2.83%.
As for `COc1cc(NC(=O)Nc2ccc(-c3sc(C)nc3-c3ccc(Cl)cc3)cc2)cc(OC)c1OC`, the inhibition in experiment [1] turned out to be 24.4%.
Regarding `CCCCCCCCCCCCNC(=O)Nc1ccc(-c2nonc2-c2ccc(F)cc2)cc1`, in experiment [1], the inhibition stood at 50.1%. For the same molecule, in experiment [2], the IC50 turned out to be 12.4 µM and the negative-log IC50 (pIC50) is 4.905.
Turning to `Cc1ccc(-c2nc(C)sc2-c2ccc(NC(=O)NCCN3CCOCC3)cc2)cc1`, the inhibition in experiment [1] is 19%.
On the same count and under the same terms, with `CCCCNC(=O)Nc1ccc(-c2sc(C)nc2-c2ccc(OC)cc2)cc1` the figure was 40%.
Take `CCc1cccc(CC)c1NC(=O)Nc1ccc(-c2nonc2-c2ccc(C)cc2)cc1`: the inhibition in experiment [1] is 0.34%.
Still for that read-out and setting: under `COc1ccc(-c2nc(C)sc2-c2ccc(NC(=O)Nc3ccc(F)cc3F)cc2)cc1` stands 22.3%.
For `CCCCCCCNC(=O)Nc1nc(-c2ccc(OC)cc2)c(-c2ccc(Cl)cc2)s1`, the inhibition in experiment [1] was 1.73%. In addition, in experiment [2], the concentration for half-maximal inhibition (IC50) was 21.3 µM and the pIC50 was 4.672.
Turning to `CC(=O)Nc1ccc(-c2sc(NC(=O)Nc3ccc(F)cc3F)nc2-c2ccc(Cl)cc2)cc1`, the inhibition in experiment [1] came to 2.03%.
On to `CCc1cccc(CC)c1NC(=O)Nc1nc(-c2ccc(C)cc2)c(-c2ccc(N)cc2)s1`, for which, in experiment [2], the IC50 came out at 103 µM and the pIC50 was 3.9863.
For the molecule `CS(=O)(=O)Nc1ccc(-c2sc(NC(=O)Nc3ccc(F)cc3F)nc2-c2ccc(Cl)cc2)cc1`, the inhibition in experiment [1] came to 6.39%.
Turning to `Cc1ccc(-c2nc(C)sc2-c2ccc(NC(=O)Nc3ccc(F)cc3F)cc2)cc1`, the inhibition in experiment [1] came to 26.6%.
Still for that read-out and setting: with `COc1ccc(-c2nc(NC(=O)Nc3ccc(F)cc3F)sc2-c2ccc([N+](=O)[O-])cc2)cc1` the figure was 3.4%; with `COc1ccc(-c2nc(C)sc2-c2ccc(NC(=O)Nc3c(C(C)C)cccc3C(C)C)cc2)cc1`, 30.1%.
`CCCCCCCCCCCCNC(=O)Nc1ccc(-c2nonc2-c2ccc(Cl)cc2)cc1`: the inhibition in experiment [1] worked out at 18.5%.
Same read-out and setting: with `O=C(Nc1ccc(-c2nonc2-c2ccc(Cl)cc2)cc1)Nc1ccc(F)cc1F` the figure was 21.2%; with `CCCCNC(=O)Nc1nc(-c2ccc(F)cc2)c(-c2ccc(NS(C)(=O)=O)cc2)s1`, 0.43%; with `CCCCCCCCCCCCNC(=O)Nc1nc(-c2ccccc2)c(-c2ccccc2)s1`, 1.2%.
Same read-out and setting: with `CCCCNC(=O)Nc1nc(-c2ccc(Cl)cc2)c(-c2ccc(NS(C)(=O)=O)cc2)s1` the figure was 5.63%; with `CCCCCCCCCCCCNC(=O)Nc1nc(-c2ccc(F)cc2)c(-c2ccc(Cl)cc2)s1`, 1.91%; with `CCCCNC(=O)Nc1nc(-c2ccc(F)cc2)c(-c2ccc(NC(C)=O)cc2)s1`, 15.4%.
Still for that read-out and setting: under `COc1ccc(-c2nc(C)sc2-c2ccc(NC(=O)Nc3cc(OC)c(OC)c(OC)c3)cc2)cc1` stands 25.4%.
`CCCCNC(=O)Nc1nc(-c2ccc(OC)cc2)c(-c2ccc(NC(C)C)cc2)s1`: the inhibition in experiment [1] stood at 4.67%.
On the same count and under the same terms, under `CCCCNC(=O)Nc1nc(-c2ccc(Cl)cc2)c(-c2ccc(NC(C)=O)cc2)s1` stands 3.75%; under `CCCCNC(=O)Nc1nc(-c2ccc(C)cc2)c(-c2ccc(NS(C)(=O)=O)cc2)s1`, 32.7%.
Still for that read-out and setting: with `CCCCNC(=O)Nc1nc(-c2ccc(F)cc2)c(-c2ccc([N+](=O)[O-])cc2)s1` the figure was 2.98%; with `CCCCCCCCCCCCNc1ccc(-c2sc(NC(=O)NCCCC)nc2-c2ccc(OC)cc2)cc1`, 3.36%.
Still for that read-out and setting: with `CCCCNC(=O)Nc1nc(-c2ccc(C)cc2)c(-c2ccc([N+](=O)[O-])cc2)s1` the figure was 3.86%.
As to `CC(=O)Nc1ccc(-c2sc(NC(=O)Nc3ccc(F)cc3F)nc2-c2ccc(F)cc2)cc1`, the inhibition in experiment [1] turned out to be 23.3%.
Same read-out and setting: under `Cc1nc(-c2ccc(Cl)cc2)c(-c2ccc(NC(=O)Nc3ccc(F)cc3F)cc2)s1` stands 1.3%.
As for `CCCCCCCCCCCCNC(=O)Nc1ccc(-c2sc(C)nc2-c2ccc(OC)cc2)cc1`, the inhibition in experiment [1] was found to be 27.5%.
Regarding `Cc1ccc(-c2nc(NC(=O)Nc3ccc(F)cc3F)sc2-c2ccc([N+](=O)[O-])cc2)cc1`, the inhibition in experiment [1] was determined as 3.86%.
The same measure, in the same setting: under `CCc1cccc(CC)c1NC(=O)Nc1ccc(-c2nonc2-c2ccc(Cl)cc2)cc1` stands 8.25%; under `CCCCCCCNC(=O)Nc1ccc(-c2sc(C)nc2-c2ccc(C)cc2)cc1`, 33.4%; under `CCCCCCCCCCCCNC(=O)Nc1nc(-c2ccc(Cl)cc2)c(-c2ccc([N+](=O)[O-])cc2)s1`, 1.77%.
On the same count and under the same terms, under `CCCCNC(=O)Nc1nc(-c2ccc(C)cc2)c(-c2ccc(NC(C)=O)cc2)s1` stands 5.23%; under `Cc1nc(-c2ccc(F)cc2)c(-c2ccc(NC(=O)NCCN3CCOCC3)cc2)s1`, 29.3%; under `CCc1cccc(CC)c1NC(=O)Nc1nc(-c2ccc(C)cc2)c(-c2ccc(Cl)cc2)s1`, 1.52%.
On the same count and under the same terms, under `Cc1ccc(-c2nc(C)sc2-c2ccc(NC(=O)Nc3ccccc3)cc2)cc1` stands 13.4%; under `Cc1ccc(-c2nc(NC(=O)Nc3ccc(F)cc3F)sc2-c2ccc(Cl)cc2)cc1`, 3.93%; under `Cc1nc(-c2ccc(Cl)cc2)c(-c2ccc(NC(=O)Nc3c(C(C)C)cccc3C(C)C)cc2)s1`, 12.6%.
Regarding `CCCCNC(=O)Nc1nc(-c2ccc(Cl)cc2)c(-c2ccc([N+](=O)[O-])cc2)s1`, the inhibition in experiment [1] came to 3.02%.
The same measure, in the same setting: under `CCCCCCCNC(=O)Nc1ccc(-c2nonc2-c2ccc(F)cc2)cc1` stands 30.9%; under `Cc1nc(-c2ccc(Cl)cc2)c(-c2ccc(NC(=O)Nc3ccccc3)cc2)s1`, 6.88%.
On the same count and under the same terms, with `COc1ccc(-c2nc(C)sc2-c2ccc(NC(=O)NCCN3CCOCC3)cc2)cc1` the figure was 21.5%.
As for `CCCCCCCNC(=O)Nc1ccc(-c2nonc2-c2ccc(C)cc2)cc1`, the inhibition in experiment [1] worked out at 18.6%.
Still for that read-out and setting: under `CCCCNC(=O)Nc1nc(-c2ccc(OC)cc2)c(-c2ccc([N+](=O)[O-])cc2)s1` stands 3.12%.
Same read-out and setting: with `O=C(Nc1nc(-c2ccccc2)c(-c2ccccc2)s1)Nc1ccc(F)cc1F` the figure was 3.03%.
Consider `CS(=O)(=O)Nc1ccc(-c2sc(NC(=O)Nc3ccc(F)cc3F)nc2-c2ccc(F)cc2)cc1`, for which the inhibition in experiment [1] stood at 18.9%.
Same read-out and setting: with `CCCCCCCNC(=O)Nc1ccc(-c2sc(C)nc2-c2ccc(OC)cc2)cc1` the figure was 22.2%.
On the same count and under the same terms, with `COc1ccc(-c2nc(NC(=O)Nc3ccc(F)cc3F)sc2-c2ccc(Cl)cc2)cc1` the figure was 2.98%.
Turning to `Cc1ccc(-c2nc(NC(=O)Nc3ccccc3)sc2-c2ccc(Cl)cc2)cc1`, the inhibition in experiment [1] worked out at 9.58%.

For the origin of these results see ChEMBL document CHEMBL4049391, “Vicinal diaryl azole-based urea derivatives as potential cholesterol lowering agents acting through inhibition of SOAT enzymes” (Eur J Med Chem, 2017).
